The values below come from patent US5696277A, “Antiviral prodrugs” (Hostetler; Karl Y., priority 1994, dated 1997).

Data set [1] concerns reverse transcriptase of human immunodeficiency virus (HIV). To be noted: cited from earlier work.
Data set [2] concerns DNA polymerase of many viruses, including human cytomegalovirus (HCMV), herpes simplex virus (HSV). To be noted: HSV and many other viruses; cited from earlier work.
The conditions of data set [3]: in vivo; cited from earlier work.
The subject of data set [4] is human cytomegalovirus. Description: CMV antiviral susceptibility assay: HCMV DNA by nucleic acid hybridization in infected MRC-5 cells (Tables I and II). The class given is cell-based. To be noted: Human betaherpesvirus 5, MRC5, 120 h; HCMV-infected MRC-5 cells, HCMV DNA after five days; mean ± S.D. (n). The procedure:
Phosphonoacid derivatives having structures according to formula I were tested for antiviral activity in human embryonic lung fibroblasts (MRC-5) or in human epithelioid cervical carcinoma cells (HeLa) expressing the CD4 receptor (HT4-6C). HCMV (strain AD-169) and HSV-1 (wild type) were used to infect MRC-5 cells and HCMV or HSV-specific DNA was measured by DNA-probe methods (HybriwixTM, Diagnostic Hybrids, Inc., Athens, Ohio) according to the manufacturer's instructions. HIV replication was accessed in HIV-1 infected HT4-6C cells using a plaque reduction assay ([…]. et al. (1990) Antimicrobial Agents Chemother. 34:436). Subconfluent MRC-5 cells in 24-well culture dishes were pretreated for 24 hours with various concentrations of drug in MEM medium containing 2% FBS and antibiotics. The media was removed and virus added at a dilution that will result in a 3-4+ cytopathic effect (CPE) in the no-drug wells in five days. This was absorbed for 1 hour at 37° C., aspirated and replaced with the drug dilutions. After five days of incubation HCMV DNA was quantified in triplicate by nucleic acid hybridization using a CMV Antiviral Susceptibility Test Kit from Diagnostic Hybrids, Inc. (Athens, Ohio). The media was removed and cells lysed according to the manufacturer's instructions. After absorption of the lysate, the HybriwixTM filters were hybridized overnight at 60° C. The HybriwixTM were washed for 30 minutes at 73° C. and counted in a gamma counter. The results are expressed as a percentage of the untreated HCMV-infected control cells.

For data set [5], the system named is human immunodeficiency virus-1. The data set is described as follows: HIV-1 plaque reduction assay in HT4-6C cells (Table IV). To be noted: Human immunodeficiency virus 1, 72 h; HIV-1 plaque reduction in HT4-6C cells, 3 days; mean ± S.D. (n). The class given is cell-based, HIV-1 in CD4-expressing human HeLa cells (HT4-6C). As to the method: (§1) Phosphonoacid derivatives having structures according to formula I were tested for antiviral activity in human embryonic lung fibroblasts (MRC-5) or in human epithelioid cervical carcinoma cells (HeLa) expressing the CD4 receptor (HT4-6C). HCMV (strain AD-169) and HSV-1 (wild type) were used to infect MRC-5 cells and HCMV or HSV-specific DNA was measured by DNA-probe methods (Hybriwix™, Diagnostic Hybrids, Inc., Athens, Ohio) according to the manufacturer's instructions. HIV replication was accessed in HIV-1 infected HT4-6C cells using a plaque reduction assay (Larder, B. et al. (1990) Antimicrobial Agents Chemother. 34:436).
HT4-6C cells and plaque reduction assay, CD4-expressing HeLa cells, HT4-6C cells (Chesebro, B. and K. Wehrly (1988) J. Virology 62:3779-3788), were obtained from Bruce Chesebro, Hamilton, Mont. The effect of antiviral compounds on HIV replication was measured by a plaque reduction assay. Briefly, monolayers of HT4-6C cells were infected with 100 to 300 PFU of virus per well in 24-well microdilution plates. Various concentrations of drug were added to the culture medium, Dulbecco's Modified Eagle Medium containing 5% fetal bovine serum and antibiotics, as noted above. After 3 days at 37° C., the monolayers were fixed with 10% formaldehyde solution in phosphate-buffered saline and stained with 0.25% crystal violet to visualize virus plaques (Larder, B. et al. (1989) Science 243:1731-1734). Antiviral activity was assessed as the percentage of control plaques measured in drug-treated samples.

The subject of data set [6] is human herpes simplex virus 1. Description: HSV antiviral susceptibility assay: HSV DNA by nucleic acid hybridization in infected MRC-5 cells (Table III). The class given is cell-based. To be noted: Human alphaherpesvirus 1, MRC5, 24 h. The procedure:
as §1
Subconfluent MRC-5 cells in 24-well culture dishes were inoculated by removing the media and adding HSV-1 virus at a dilution that will result in a 3-4+ CPE in the no-drug well in 20-24 hours. This was absorbed for 1 hour at 37° C., aspirated and replaced with various concentrations of drugs in MEM medium containing 2% FBS and antibiotics. After approximately 24 hours of incubation, HSV DNA was quantified in triplicate by nucleic acid hybridization using a HSV Antiviral Susceptibility Test Kit from Diagnostic Hybrids, Inc. (Athens, Ohio). The media was removed and cells lysed according to the manufacturer's instructions. After absorption of the lysate, the Hybriwix™ filters were hybridized overnight at […] The Hybriwix™ were washed for 30 minutes at 73° C. and counted in a gamma counter. The results are expressed as a percentage of the untreated HSV-infected control cells.

As for `O=C(O)CP(=O)(O)O` [PAA, phosphonoacetic acid], the “selective inhibition of HIV reverse transcriptase” value in data set [1] was “selectively inhibit”. Besides, the “selective inhibition of viral DNA polymerase” value in data set [2] is reported as “selectively inhibit the DNA polymerase of many viruses”. Moreover, the toxicity in humans entry in data set [3] is “too toxic for use in humans”. In data set [4], half-maximal inhibition (IC50) required 22 ± 7 µM.

For `O=C(O)P(=O)(O)O` [PFA, phosphonoformic acid, reference compound], the “selective inhibition of HIV reverse transcriptase” value in data set [1] is recorded as “selectively inhibit”. For the same compound, in data set [2], the “selective inhibition of viral DNA polymerase” value is “selectively inhibit the DNA polymerase of many viruses”. Further, the IC50 in data set [5] was 133 ± 54 µM; in data set [6] it was 47 ± 20 µM; in data set [4], 46 ± 19 µM. Besides, the toxicity in humans result in data set [3] was “substantial toxicity to the kidney and other organs”.
